Source: patent publication US10766890B2, “Hepatitis B core protein modulators” (Assembly Biosciences, Inc., priority 2015, dated 2020)

Key:
AD38 cells = assay: Viability of AD38 cells, Promega CellTiter-Glo; format: cell-based; conditions: 10 μM compound, 6 days, CellTiter-Glo luminescence, controls being 100%
Procedure: (§1) Example 63: Assay Measuring Activity of Compounds on Viral Production in and on Viability of AD38 Cells
(§2) AD38 cells were then re-suspended with 10 mL of Treatment Medium and counted. Wells of a collagen coated 96-well NUNC microtiter plate were seeded at 50,000/well in 180 μL of Treatment Medium, and 20 μL of in treatment media with either 10% DMSO (Control) or a 10× solution of compound in 10% DMSO was added. Plates were incubated for 6 days at 37° C.
At the end of compound treatment period cell viability was assessed using a Promega CellTiter-Glo protocol. All supernatant was removed the previously treated 96-well microtiter plate, and 50 μL Tetracycline-free treatment medium (DMEM/F12 (1:1), 1×Pen/step (cat#: 30-002-CL, Mediatech, Inc), with 2% FBS, Tet-system approved (cat#: 631106, Clontech), and 1% DMSO was added back to each well. Another 50 μL of CellTiter-Glo reagent solution (Promega, G7573) was then added at room temperature and the contents mixed for 2 minutes on an orbital shaker to induce cell lysis. This was followed by incubation at room temperature for 10 minutes to stabilize the luminescent signal. The luminescence was recorded for 0.2 seconds per well on a Tecan multimode platereader (Infinite M1000 pro). The luminescent signal from each well was normalized against that of untreated (DMSO) control wells. All results in Table 3 were reported with percent viability (with controls being 100%).

HBV = assay: Viral load production in AD38 cells, quantitative PCR of the core sequence in supernatant; format: cell-based; conditions: 10 μM compound, 6 days at 37° C., supernatant qPCR vs DMSO control; for activity at 10 µM: Hepatitis B virus, 144 h, read-out: AD38 Viral Load (%) (VL with cmpd/VL in DMSO control) at 10 μM
Procedure: as §1, §2
Viral load production was assayed by quantitative PCR of the core sequence. […] The PCR mixture was incubated at 45° C. for 5 minutes, then 95° C. for 10 min, followed by 40 cycles of 10 seconds at 95° C. and 20 seconds at 60° C. Viral load was quantitated against known standards by using ViiA™ 7 Software. Viral load in the supernatant from wells with treated cells were compared against viral load in supernatant from DMSO control wells (≥3 per plate).

| SMILES | AD38 Viability Normalized Result (cmpd/DMSO %) at 10 μM (AD38 cells) [%] | AD38 Viral Load (%) (VL with cmpd/VL in DMSO control) at 10 μM (HBV) | activity at 10 µM (HBV) [%] |
| --- | --- | --- | --- |
| NCc1ccc(-c2ccc(CNC(=O)c3ccc4c(c3)NC(=O)c3ccccc3O4)cc2)cc1 [Compound 726] | 1 | 6.1 |  |
| N#Cc1cccc(-c2ccc(CNC(=O)c3ccc4c(c3)NC(=O)c3ccccc3O4)cc2)c1 [Compound 728-A] | 120 |  | 66.8 |
| O=C(NCc1ccc(-c2ccc3[nH]cnc3c2)cc1)c1ccc2c(c1)NC(=O)c1ccccc1O2 [Compound 729] | 97 |  | 16.3 |
| O=C(NCc1ccc(-c2ccc3[nH]ccc3c2)cc1)c1ccc2c(c1)NC(=O)c1ccccc1O2 [Compound 730] | 101 |  | 24.2 |
| O=C(NCc1cccc(Cc2cccc(O)c2)c1)c1ccc2c(c1)NC(=O)c1ccccc1O2 [Compound 740] | 103 |  | 23.8 |
| O=C(NCc1cccc(Cc2ccc(O)cc2)c1)c1ccc2c(c1)NC(=O)c1ccccc1O2 [Compound 741, N-(3-(4-hydroxybenzyl)benzyl)-11-oxo-10,11-dihydrodibenzo[b,f][1,4]oxazepine-8-carboxamide] | 111 |  | 40.1 |
| COc1ccc(Cc2cccc(CNC(=O)c3ccc4c(c3)NC(=O)c3ccccc3O4)c2)cc1 [Compound 741-A] | 89 |  | 42.4 |
| O=C(NCc1cccc(Sc2cccc(O)c2)c1)c1ccc2c(c1)NC(=O)c1ccccc1O2 [Compound 742, N-(3-((3-hydroxyphenyl)thio)benzyl)-11-oxo-10,11-dihydrodibenzo[b,f][1,4]oxazepine-8-carboxamide] | 89 |  | 12.7 |
| COc1cccc(Sc2cccc(CNC(=O)c3ccc4c(c3)NC(=O)c3ccccc3O4)c2)c1 [Compound 742-A, N-(3-((3-methoxyphenyl)thio)benzyl)-11-oxo-10,11-dihydrodibenzo[b,f][1,4]oxazepine-8-carboxamide] | 107 |  | 2.6 |
| O=C(NCc1cccc(Sc2ccc(O)cc2)c1)c1ccc2c(c1)NC(=O)c1ccccc1O2 [Compound 743, N-(3-((4-hydroxyphenyl)thio)benzyl)-11-oxo-10,11-dihydrodibenzo[b,f][1,4]oxazepine-8-carboxamide] | 102 |  | 6.8 |
| COc1ccc(Sc2cccc(CNC(=O)c3ccc4c(c3)NC(=O)c3ccccc3O4)c2)cc1 [Compound 743-A] | 91 |  | 22.7 |
| O=C(NCc1cccc(Oc2cccc(O)c2)c1)c1ccc2c(c1)NC(=O)c1ccccc1O2 [Compound 744, N-(3-(3-hydroxyphenoxy)benzyl)-11-oxo-10,11-dihydrodibenzo[b,f][1,4]oxazepine-8-carboxamide] | 108 |  | 62.9 |
| COc1cccc(Oc2cccc(CNC(=O)c3ccc4c(c3)NC(=O)c3ccccc3O4)c2)c1 [Compound 744-A, N-(3-(3-methoxyphenoxy)benzyl)-11-oxo-10,11-dihydrodibenzo[b,f][1,4]oxazepine-8-carboxamide] | 103 |  | 8.9 |
| O=C(NCc1cccc(Oc2ccc(O)cc2)c1)c1ccc2c(c1)NC(=O)c1ccccc1O2 [Compound 745, N-(3-(4-hydroxyphenoxy)benzyl)-11-oxo-10,11-dihydrodibenzo[b,f][1,4]oxazepine-8-carboxamide] | 108 |  | 38.7 |
| COc1ccc(Oc2cccc(CNC(=O)c3ccc4c(c3)NC(=O)c3ccccc3O4)c2)cc1 [Compound 745-A, N-(3-(4-methoxyphenoxy)benzyl)-11-oxo-10,11-dihydrodibenzo[b,f][1,4]oxazepine-8-carboxamide] | 92 |  | 16.1 |
| NC(=O)c1ccc(-c2ccc(CNC(=O)c3ccc4c(c3)NC(=O)c3ccccc3S4(=O)=O)cc2)cc1 [Compound 765] | 103 | 59.4 |  |
| O=C(NCc1cccc(-c2ccc(O)cc2)c1)c1ccc2c(c1)NC(=O)c1ccccc1S2(=O)=O [Compound 773] | 87 |  | 0.6 |
| O=C(NCc1cccc(-c2cccc(O)c2)c1)c1ccc2c(c1)NC(=O)c1ccccc1S2(=O)=O [Compound 774] | 113 |  | 48.5 |
| COc1ccc(-c2ccc(CNC(=O)c3ccc4c(c3)NC(=O)c3ccccc3S4(=O)=O)cc2)cn1 [Compound 775, N-(4-(6-methoxypyridin-3-yl)benzyl)-11-oxo-10,11-dihydrodibenzo[b,f][1,4]thiazepine-8-carboxamide 5,5-dioxide] | 93 |  | 2.6 |
| O=C(NCc1ccc(-c2ccc(O)nc2)cc1)c1ccc2c(c1)NC(=O)c1ccccc1S2(=O)=O [Compound 776, N-(4-(6-hydroxypyridin-3-yl)benzyl)-11-oxo-10,11-dihydrodibenzo[b,f][1,4]thiazepine-8-carboxamide 5,5-dioxide] | 100 |  | 63.1 |
| Nc1ncc(-c2ccc(CNC(=O)c3ccc4c(c3)NC(=O)c3ccccc3S4(=O)=O)cc2)cn1 [Compound 777] | 99 |  | 11.7 |
| O=C(NCc1cccc(Cc2cccc(O)c2)c1)c1ccc2c(c1)NC(=O)c1ccccc1S2(=O)=O [Compound 808, N-(3-(3-hydroxybenzyl)benzyl)-11-oxo-10,11-dihydrodibenzo[b,f][1,4]thiazepine-8-carboxamide 5,5-dioxide] | 90 |  | 3 |
| COc1cccc(Cc2cccc(CNC(=O)c3ccc4c(c3)NC(=O)c3ccccc3S4(=O)=O)c2)c1 [Compound 808-A, N-(3-(3-methoxybenzyl)benzyl)-11-oxo-10,11-dihydrodibenzo[b,f][1,4]thiazepine-8-carboxamide 5,5-dioxide] | 84 |  | 1.5 |
| O=C(NCc1cccc(Cc2ccc(O)cc2)c1)c1ccc2c(c1)NC(=O)c1ccccc1S2(=O)=O [Compound 809, N-(3-(4-hydroxybenzyl)benzyl)-11-oxo-10,11-dihydrodibenzo[b,f][1,4]thiazepine-8-carboxamide 5,5-dioxide] | 77 |  | 1.1 |
| COc1ccc(Cc2cccc(CNC(=O)c3ccc4c(c3)NC(=O)c3ccccc3S4(=O)=O)c2)cc1 [Compound 809-A, N-(3-(4-methoxybenzyl)benzyl)-11-oxo-10,11-dihydrodibenzo[b,f][1,4]thiazepine-8-carboxamide 5,5-dioxide] | 85 |  | 0.6 |
| O=C(NCc1cccc(Oc2cccc(O)c2)c1)c1ccc2c(c1)NC(=O)c1ccccc1S2(=O)=O [Compound 810, N-(3-(3-hydroxyphenoxy)benzyl)-11-oxo-10,11-dihydrodibenzo[b,f][1,4]thiazepine-8-carboxamide 5,5-dioxide] | 93 |  | 3.2 |
| COc1cccc(Oc2cccc(CNC(=O)c3ccc4c(c3)NC(=O)c3ccccc3S4(=O)=O)c2)c1 [Compound 810-A, N-(3-(3-methoxyphenoxy)benzyl)-11-oxo-10,11-dihydrodibenzo[b,f][1, 4]thiazepine-8-carboxamide 5,5-dioxide] | 90 |  | 1.1 |
| O=C(NCc1cccc(Oc2ccc(O)cc2)c1)c1ccc2c(c1)NC(=O)c1ccccc1S2(=O)=O [Compound 811, N-(3-(4-hydroxyphenoxy)benzyl)-11-oxo-10,11-dihydrodibenzo[b,f][1,4]thiazepine-8-carboxamide 5,5-dioxide] | 95 |  | 1.2 |
| COc1ccc(Oc2cccc(CNC(=O)c3ccc4c(c3)NC(=O)c3ccccc3S4(=O)=O)c2)cc1 [Compound 811-A, N-(3-(4-methoxyphenoxy)benzyl)-11-oxo-10,11-dihydrodibenzo[b,f][1,4]thiazepine-8-carboxamide 5,5-dioxide] | 86 |  | 1.9 |
| O=C(NCc1cccc(Sc2cccc(O)c2)c1)c1ccc2c(c1)NC(=O)c1ccccc1S2(=O)=O [Compound 812, N-(3-((3-hydroxyphenyl)thio)benzyl)-11-oxo-10,11-dihydrodibenzo[b,f][1,4]thiazepine-8-carboxamide 5,5-dioxide] | 99 |  | 5.1 |
